Measured values taken from US4501892A, “Pyridyl benzenediols” (The Upjohn Company, priority 1982, dated 1985).

Biological target: T1, TXA2 synthetase (Homo sapiens, UniProt P24557)
T1 construct: human platelet microsomes (HPM); from tissue; host or cells: human platelet microsomes
T1 sequence (P24557 1-533): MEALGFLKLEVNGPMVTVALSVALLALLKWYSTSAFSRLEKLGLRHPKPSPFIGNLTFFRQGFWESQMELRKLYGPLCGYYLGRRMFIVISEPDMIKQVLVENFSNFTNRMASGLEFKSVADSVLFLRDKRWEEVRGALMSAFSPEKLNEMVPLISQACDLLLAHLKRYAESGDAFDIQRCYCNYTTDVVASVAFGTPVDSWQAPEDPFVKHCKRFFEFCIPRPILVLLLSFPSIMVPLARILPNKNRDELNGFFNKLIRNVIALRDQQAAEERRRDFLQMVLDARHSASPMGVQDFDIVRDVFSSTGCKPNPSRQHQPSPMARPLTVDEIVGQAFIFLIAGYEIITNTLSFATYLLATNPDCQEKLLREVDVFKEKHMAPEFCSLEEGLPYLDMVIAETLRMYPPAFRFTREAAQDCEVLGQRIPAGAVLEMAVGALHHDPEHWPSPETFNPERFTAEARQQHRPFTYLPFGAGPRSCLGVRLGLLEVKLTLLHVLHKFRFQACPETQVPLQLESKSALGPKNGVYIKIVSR
Assay: TXA2 inhibition test: PGH2 mixed with human platelet microsomes (HPM), TXA2 measured by response of superfused rabbit aortic strips
Type: biochemical
Conditions: rabbit aorta response; for effectiveness in inhibiting TXA2 formation (in words): PGH2 + human platelet microsomes
Experimental: The compounds of the present invention were tested for TXA2 inhibition as follows:
Rabbit aortic strips were superfused in series with Krebs solution. Thromboxane A2 (TXA2) was generated by mixing prostaglandin H2 (PGH2) with human platelet microsomes (HPM).
Potential inhibitors were tested by comparing the response of the rabbit aorta to the amount of TXA2 produced by mixing PGH2 and HPM without the test compound in the reaction medium and then the amount of TXA2 produced when the test compound was added to the HPM 5 minutes before the HPM was mixed with PGH2. […] For a discussion of TXA2 synthetase inhibition testing see, e.g., R. Gorman, supra.

effectiveness in inhibiting TXA2 formation (in words)	IC50 (test compound added to HPM 5 minutes before mixing with PGH2, read-out: approximate ED50 (inhibition of TXA2 formation) (converted)) [µM]	Compound
most effective	~0.369	COC(=O)C1Oc2ccc(Cc3cccnc3)cc2O1 (racemic) [Example 1, dl-4-(3-Pyridinylmethyl)-1,2-benzenediol, methyl glyoxylate acetal]
most effective		2,3-Dihydro-7-(and 6-)(3-pyridinylmethyl)-1,4-benzodioxin-2-carboxylic acid, sodium salt
